Assay results as given in PubChem BioAssay (NCI).
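At the GI50, growth is halved. TGI is the concentration that stops growth completely.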

Assays:
Assay in all cases: DTP human tumour cell line panel, 384-well format
A498 renal = system: A498 renal
A549 NSCLC = system: A549 NSCLC
ACHN renal = system: ACHN renal
CCRF-CEM leukemia = system: CCRF-CEM leukemia
COLO 205 colon = system: COLO 205 colon
EKVX NSCLC = system: EKVX NSCLC
HCC-2998 colon = system: HCC-2998 colon
HL-60(TB) leukemia = system: HL-60(TB) leukemia
HOP-62 NSCLC = system: HOP-62 NSCLC
HOP-92 NSCLC = system: HOP-92 NSCLC
HS 578T breast = system: HS 578T breast
HT29 colon = system: HT29 colon
IGROV1 ovarian = system: IGROV1 ovarian
KM12 colon = system: KM12 colon
M14 melanoma = system: M14 melanoma
MALME-3M melanoma = system: MALME-3M melanoma
MCF7 breast = system: MCF7 breast
MDA-MB-231 breast = system: MDA-MB-231 breast
MDA-MB-435 melanoma = system: MDA-MB-435 melanoma
MDA-MB-468 breast = system: MDA-MB-468 breast
NCI-H226 lung = system: NCI-H226 lung
NCI-H322M lung = system: NCI-H322M lung
NCI/ADR-RES ovarian = system: NCI/ADR-RES ovarian
OVCAR-5 ovarian = system: OVCAR-5 ovarian
OVCAR-8 ovarian = system: OVCAR-8 ovarian
PC-3 prostate = system: PC-3 prostate
SF-295 CNS = system: SF-295 CNS
SK-MEL-28 melanoma = system: SK-MEL-28 melanoma
SK-OV-3 ovarian = system: SK-OV-3 ovarian
SN12C renal = system: SN12C renal
SNB-19 CNS = system: SNB-19 CNS
SNB-75 CNS = system: SNB-75 CNS
T-47D breast = system: T-47D breast
TK-10 renal = system: TK-10 renal
U251 glioblastoma = system: U251 glioblastoma
UACC-257 melanoma = system: UACC-257 melanoma
UO-31 renal = system: UO-31 renal

## CCOC(=O)C1=CCCC[C@H]1S(=O)(=O)Nc1ccc(F)cc1Cl
A498 renal
  GI50: 19.5 µM
  TGI: 49.6 µM
A549 NSCLC
  GI50: 32.1 µM
  TGI: > 100 µM
ACHN renal
  GI50: 27.9 µM
  TGI: 85.2 µM
CCRF-CEM leukemia
  GI50: 14.8 µM
  TGI: 28.9 µM
COLO 205 colon
  GI50: 28.4 µM
  TGI: 62.8 µM
EKVX NSCLC
  GI50: 19.4 µM
  TGI: 44.3 µM
HCC-2998 colon
  GI50: 18.4 µM
  TGI: 37.3 µM
HL-60(TB) leukemia
  GI50: 10.6 µM
  TGI: 22.7 µM
HOP-62 NSCLC
  GI50: 19.4 µM
  TGI: 73.7 µM
HOP-92 NSCLC
  GI50: 16.9 µM
  TGI: 39.8 µM
HS 578T breast
  GI50: 16.1 µM
  TGI: 42.2 µM
HT29 colon
  GI50: 29.8 µM
  TGI: > 100 µM
IGROV1 ovarian
  GI50: 29.8 µM
  TGI: > 100 µM
KM12 colon
  GI50: 21 µM
  TGI: 48.4 µM
M14 melanoma
  GI50: 21.9 µM
  TGI: 68 µM
MALME-3M melanoma
  GI50: 21.7 µM
  TGI: 57.6 µM
MCF7 breast
  GI50: 14.1 µM
  TGI: 33 µM
MDA-MB-231 breast
  GI50: 27.3 µM
  TGI: > 100 µM
MDA-MB-435 melanoma
  GI50: 31 µM
  TGI: > 100 µM
MDA-MB-468 breast
  GI50: 12.4 µM
  TGI: 27.2 µM
NCI-H226 lung
  GI50: 18.8 µM
  TGI: 52.3 µM
NCI-H322M lung
  GI50: 20.1 µM
  TGI: 51.1 µM
NCI/ADR-RES ovarian
  GI50: 18.6 µM
  TGI: 39.4 µM
OVCAR-5 ovarian
  GI50: 26.7 µM
  TGI: 70.6 µM
OVCAR-8 ovarian
  GI50: 15.6 µM
  TGI: 38.6 µM
PC-3 prostate
  GI50: 18.8 µM
  TGI: 41 µM
SF-295 CNS
  GI50: 19.2 µM
  TGI: 52.5 µM
SK-MEL-28 melanoma
  GI50: > 100 µM
  TGI: > 100 µM
SK-OV-3 ovarian
  GI50: 22.3 µM
  TGI: 65.5 µM
SN12C renal
  GI50: 18.4 µM
  TGI: 48.4 µM
SNB-19 CNS
  GI50: 23.6 µM
  TGI: 79.9 µM
SNB-75 CNS
  GI50: 20.4 µM
  TGI: 55.3 µM
T-47D breast
  GI50: 11.4 µM
  TGI: 24.1 µM
TK-10 renal
  GI50: 22 µM
  TGI: 60.5 µM
U251 glioblastoma
  GI50: 18.1 µM
  TGI: 41 µM
UACC-257 melanoma
  GI50: 17.5 µM
  TGI: 84.9 µM
UO-31 renal
  GI50: 19 µM
  TGI: 47.2 µM
